# Source: US20250188044A1 (HARBIN MEDISAN PHARMACEUTICAL CO., LTD., priority 2021, published 2025)
# Read-outs that look alike come from different tables or passages of the source.
# Key:
# [1] = Pharmacokinetic evaluation in mice; assay type: in vivo, C57BL/6J mice; settings: for AUC(0-inf): read-out: Area under the curve AUC(0-∞); for half-life: read-out: Half-life T1/2 (converted); for Cmax: read-out: Peak concentration Cmax; for Tmax: read-out: Time-to-peak Tmax
# From the text: Animals: 6 male C57BL/6J mice, SPF grade, sourced from the animal repository of Shanghai Medicilon research institution.
# Grouping: Mice were divided into 2 groups of 3 mice each, one group was an oral administration group and the other group was an intravenous injection administration group. The dose in the oral administration group was 10 mpk, and the dose in the intravenous injection group was 2 mpk.
# Experimental method: After the intravenous injection administration group was subjected to administration by injection via the tail vein, approximately 0.03 mL of blood was collected via the orbit at 0.083 h, 0.25 h, 0.5 h, 1 h, 2 h, 4 h, 8 h, and 24 h, and an ethylenediaminetetraacetic acid dipotassium salt was quickly added for anticoagulation and the blood was placed on ice after the blood collection. The mice in the oral administration group were fasted for 12 h before administration and fed 4 h after administration; after oral administration, approximately 0.03 mL of blood was collected via the orbit at 0.25 h, 0.5 h, 1 h, 2 h, 4 h, 6 h, 8 h, and 24 h, and an ethylenediaminetetraacetic acid dipotassium salt was quickly added for anticoagulation and the blood was placed on ice after the blood collection. All samples were centrifuged at 18,000 g for 7 min in a low-temperature centrifuge, and plasma was isolated. The content of the compound in the plasma was determined by LC-MS/MS-18, and relevant pharmacokinetic parameters were calculated from the plasma concentration data at different time points.
# [2] = test system: THP1 cells; experiment: LPS-induced inflammation-associated gene expression of THP1 cells (qPCR); assay type: cell-based, human; settings: THP1 monocyte-derived macrophages, 8, 40, and 200 nM, 6 h, qPCR (FIG. 3)
# Procedure: THP1 cells (human monocytes) were cultured in a 6-well cell culture plate in a medium containing 100 ng/mL phorbol ester (purchased from MCE) and stimulated for differentiation for 48 h.
# The medium was replaced with a fresh complete medium for the blank control group, the medium was replaced with a complete medium containing […] LPS for the LPS group, and the medium was replaced with 8, 40, and 200 nM drug-containing media prepared with a complete medium containing […] LPS for the administration group. After 6 h of treatment, the medium was discarded. Quantitative PCR was performed according to the procedures in Example 207 to detect the expression of IL6 and IL12B, which are inflammatory factors playing an important role in inflammatory response (the primer sequences are shown in Table 8). […] Some other compounds of the present invention also have similar anti-inflammatory activity.
# [3] = biological target: T1, PPARα (Homo sapiens, UniProt Q07869); experiment: Gal4-PPARα(LBD) reporter gene agonistic activity assay in Cos-7 cells; assay type: cell-based; settings: for EC50: Cos-7 cells, Gal4-PPARα(LBD) reporter, 16 h, 100% = GW7647 10 nM; for agonistic activity for PPARα (EC50 level, in words): Cos-7 reporter assay
# T1 construct: hPPARα (279aa-580aa); expressed in transfected cells; host or cells: Cos-7
# T1 sequence (Q07869 167-468 limits assumed): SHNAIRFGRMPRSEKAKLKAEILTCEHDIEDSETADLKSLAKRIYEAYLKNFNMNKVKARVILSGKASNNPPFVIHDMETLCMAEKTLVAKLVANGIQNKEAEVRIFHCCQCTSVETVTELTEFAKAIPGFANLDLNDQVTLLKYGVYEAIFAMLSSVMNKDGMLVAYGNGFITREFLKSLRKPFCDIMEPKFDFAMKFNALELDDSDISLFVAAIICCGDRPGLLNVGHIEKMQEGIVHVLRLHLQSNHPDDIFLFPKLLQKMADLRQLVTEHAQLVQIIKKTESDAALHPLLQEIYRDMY
# Procedure: (§1) Cos-7 cells (African green monkey kidney fibroblasts, commonly used tool cells) were cultured in a 10 cm cell culture dish in a DMEM complete medium containing 10% fetal bovine serum. When the cells grew to a density of about 70%, the medium was replaced with a fresh medium for later transfection. […] The plasmid working solution was then added to the cell culture dish for cell transfection. […] Test compounds were prepared into appropriate test concentrations with a complete medium and then added to the 96-well plate. […] 10 μL of lysate was pipetted into a white opaque 384-well plate, and then 10 μL of reporter gene assay buffer (purchased from Shanghai Beyotime Biological Tech. Co., Ltd.) was added. The bioluminescence was detected by using a multimode microplate reader, and the corresponding half maximal effective concentration (EC50) value was calculated according to the detection value.
# [4] = Metabolic stability in human liver microsomes; assay type: in vitro ADME; settings: for half-life: human liver microsomes 0.75 mg/mL, NADPH, 0-60 min
# Procedure: A 500 μM solution of the compound in acetonitrile was prepared and diluted to obtain a 1.5 μM drug working solution with a 0.1 M potassium phosphate solution. The drug working solution was co-incubated with a human liver microsome working solution at a final concentration of 0.75 mg/mL and an NADPH solution (final concentration: 550 μM), and the incubation was terminated by adding an acetonitrile solution at 0 min, 15 min, 30 min, 45 min, and 60 min. The residual amount of the compound that remained in the system at each time point was detected by using LC/MS. The absolute value k of the slope was determined by plotting the natural logarithm of the percentage of the residual amount of the compound with the time, and the calculation was performed according to the formula: T1/2 (half-life)=ln2/k=0.693/k.
# [5] = test system: HepG2 cells; experiment: Lipid metabolism-associated gene expression of HepG2 cells (qPCR); assay type: cell-based, human; settings: 8 nM, nM, and 200 nM, 12 h, vs. blank control (FIGS. 1 and 2)
# Procedure: HepG2 cells (human hepatoma cells) were cultured in a 6-well cell culture plate and subjected to adherent culture overnight. […] The old medium was discarded and replaced with drug-containing medium of different concentrations (complete medium without the compound for the blank control group). After dosing, the cells were incubated for 12 h. The medium was discarded and total RNA was extracted by the phenol-chloroform method. After reverse transcription, the real-time quantitative fluorescent PCR experiment (RNA extraction, reverse transcription, quantitative PCR reagents were all purchased from Nanjing Vazyme Biotech Co., Ltd.) was performed using ACTB as an internal reference, and the expression of PDK4, ACADVL, and CPT1A, which are important genes in oxidative metabolism of lipids, was detected according to the steps in the product instructions (the primer sequences are shown in Table 7). […] Some other compounds of the present invention also have similar activity.
# [6] = biological target: T2, PPARδ (Homo sapiens, UniProt Q03181); experiment: Gal4-PPARδ(LBD) reporter gene agonistic activity assay in Cos-7 cells; assay type: cell-based; settings: for agonistic activity for PPARδ (EC50 level, in words): Cos-7 reporter assay
# T2 construct: expressed in transfected cells; host or cells: Cos-7
# T2 sequence (Q03181 139-441 limits assumed): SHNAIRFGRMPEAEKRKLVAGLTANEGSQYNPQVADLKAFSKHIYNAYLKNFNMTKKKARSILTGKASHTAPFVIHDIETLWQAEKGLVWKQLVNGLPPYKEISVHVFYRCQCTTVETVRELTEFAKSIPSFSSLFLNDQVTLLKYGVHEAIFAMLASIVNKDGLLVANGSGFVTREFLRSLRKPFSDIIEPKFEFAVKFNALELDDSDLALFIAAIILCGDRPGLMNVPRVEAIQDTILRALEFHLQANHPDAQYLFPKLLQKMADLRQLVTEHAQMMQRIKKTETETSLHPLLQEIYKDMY
# Procedure: as §1
# [7] = Pharmacokinetic evaluation in rats; assay type: in vivo, SD rats
# Procedure: Animals: 6 male SD rats, SPF grade, sourced from the animal repository of Shanghai Medicilon research institution.
# The dose in the oral administration group was 10 mpk, and the dose in the intravenous injection group was 2 mpk.
# All samples were centrifuged at 18,000 g for 7 min in a low-temperature centrifuge, and plasma was isolated. The content of the compound in the plasma was determined by LC-MS/MS-18, and relevant pharmacokinetic parameters were calculated from the plasma concentration data at different time points.
# [8] = male, C57BL/6J, mouse, plasma, 2 mg/kg, intravenous injection, 2 mpk
# [9] = male, C57BL/6J, mouse, plasma, 10 mg/kg, oral administration, 10 mpk
compound,measurement,setting,value
"Cc1cc(Cn2ncn(-c3ccc(C(F)(F)F)cc3)c2=O)cc(C)c1OC(C)(C)C(=O)O [Compound 57, 2-(2,6-Dimethyl-4-((5-oxo-4-(4-(trifluoromethyl)phenyl)-4,5-dihydro-1H-1,2,4-triazol-1-yl)methyl)phenoxy)-2-methylpropionic acid]",pharmacokinetic properties (in words),[1],good pharmacokinetic properties
same,AUC(0-inf),[1]; [8],4360 ± 522 ng·h/mL
same,half-life,[1]; [8],9.53 ± 3.29 h
same,Cmax,[1]; [8],7240 ± 269 ng/mL
same,Tmax,[1]; [8],0.08 h
same,AUC(0-inf),[1]; [9],18600 ± 2760 ng·h/mL
same,bioavailability,"[1]; male, C57BL/6J, mouse, plasma, 10 mg/kg, oral administration, 10 mpk, read-out: Bioavailability F",87.3%
same,half-life,[1]; [9],7.41 ± 2.05 h
same,Cmax,[1]; [9],14000 ± 2050 ng/mL
same,Tmax,[1]; [9],0.25 h
same,LPS-induced expression of IL6 and IL12B,[2],resist LPS-induced up-regulation of IL6 and IL12B of macrophages
same,EC50,[3],26 nM
same,"agonistic activity for PPARα (EC50 level, in words)",[3],at nanomolar levels
same,metabolic stability in human liver microsomes (in words),[4]; human liver microsomes,very good metabolic stability in human liver microsomes
same,half-life,[4],> 2 h
same,"expression of PDK4, ACADVL, and CPT1A",[5],"improve the expression of PDK4, ACADVL, and CPT1A in a dose-dependent manner with significance"
same,EC50,[6],2 nM
same,"agonistic activity for PPARδ (EC50 level, in words)",[6],at nanomolar levels
"Cc1cc(Cn2ncn(-c3ccc(OC(F)(F)F)cc3)c2=O)cc(C(F)(F)F)c1OC(C)(C)C(=O)O [Compound 163, 2-Methyl-2-(2-methyl-4-((5-oxo-4-(4-(trifluoromethoxy)phenyl)-4,5-dihydro-1H-1,2,4-triazol-1-yl)methyl)-6-(trifluoromethyl)phenoxy)propionic acid]",EC50,[3],35 nM
same,"agonistic activity for PPARα (EC50 level, in words)",[3],at nanomolar levels
same,pharmacokinetic properties (in words),[7],relatively good pharmacokinetic properties
same,Area under the curve AUC(0-∞),"[7]; intravenous injection, 2 mpk",15851.97 ± 3557.93 ng·h/mL
same,Half-life T1/2,"[7]; intravenous injection, 2 mpk",12.71 ± 8.67 h
same,Peak concentration Cmax,"[7]; intravenous injection, 2 mpk",10864.30 ± 719.85 ng/mL
same,Time-to-peak Tmax,"[7]; intravenous injection, 2 mpk",0.08 ± 0.00 h
same,Area under the curve AUC(0-∞),"[7]; oral administration, 10 mpk",39483.83 ± 5363.60 ng·h/mL
same,Bioavailability F,"[7]; oral administration, 10 mpk",53.24%
same,Half-life T1/2,"[7]; oral administration, 10 mpk",6.86 ± 0.34 h
same,Peak concentration Cmax,"[7]; oral administration, 10 mpk",5474.28 ± 1232.94 ng/mL
same,Time-to-peak Tmax,"[7]; oral administration, 10 mpk",0.25 ± 0.00 h
same,half-life,[4],> 2 h
same,EC50,[6],6 nM
same,"agonistic activity for PPARδ (EC50 level, in words)",[6],at nanomolar levels
